From US20050148534A1, “Small molecule compositions and methods for increasing drug efficiency using compositions thereof” (priority 2003, published 2005)
“And” between values parts separate entries of the source, which are not always exact repeats. Identical values can stand only once. Like-named read-outs stand apart in the source and are kept apart here.

Key:
TK1 = target: T1, TK1 (Homo sapiens, UniProt P04183); settings: substrate activity; literature (Johansson et al.; Eriksson et al., BBCR 1991; 176, 586), source per Table 3; cited from earlier work
T1 sequence (P04183 1-234): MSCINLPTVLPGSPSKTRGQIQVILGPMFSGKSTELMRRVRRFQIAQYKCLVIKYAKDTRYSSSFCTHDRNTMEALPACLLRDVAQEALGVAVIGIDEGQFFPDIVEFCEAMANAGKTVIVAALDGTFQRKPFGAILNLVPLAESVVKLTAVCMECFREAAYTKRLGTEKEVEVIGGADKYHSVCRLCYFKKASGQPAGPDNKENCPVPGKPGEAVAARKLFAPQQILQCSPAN

TK2 = target: T2, TK2 (Homo sapiens, UniProt O00142); set-up: unit not given here; settings: substrate activity, literature (Johansson et al.; Eriksson et al.; Wang et al.), source per Table 3, cited from earlier work
T2 sequence (O00142 34-265): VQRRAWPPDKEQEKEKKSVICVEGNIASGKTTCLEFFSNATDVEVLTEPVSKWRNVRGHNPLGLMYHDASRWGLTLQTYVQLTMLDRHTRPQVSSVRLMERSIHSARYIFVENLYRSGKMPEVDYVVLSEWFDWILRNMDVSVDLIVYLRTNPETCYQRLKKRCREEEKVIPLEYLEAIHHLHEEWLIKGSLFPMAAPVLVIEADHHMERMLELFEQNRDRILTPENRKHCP

[1] = target: deoxycytidine kinase (dCK) (Homo sapiens, UniProt P27707); settings: substrate activity; literature (Johansson et al.; Eriksson et al.; Wang et al.), source per Table 3; cited from earlier work
[2] = target: T3, Human thymidine kinase 1 (TK1) (Homo sapiens, UniProt P04183); experiment: Thymidine kinase coupled (kinetic) ATP depletion assay; assay type: biochemical; settings: initial velocity relative to thymidine; 100 μM conjugate
T3 construct: His tag (from pET28b(+)) (N); made in house; host or cells: E. coli BL21-codon plus
T3 sequence (P04183 1-234): T1 sequence (P04183 1-234)
Protocol: Thymidine kinase, viral thymidine kinase, TK-1 deoxycytidine kinase, and deoxyguanosine kinase activities are determined by subjecting a first end of a linker used in synthesizing linker-substrate constructs to a first test. The first test may involve observing ADP formation, an obligatory co-product of phospho group transfer from ATP which is catalyzed by the kinase to the C5′ hydroxyl group or its equivalent in the nucleoside or nucleoside analog. Formation of ADP is followed by a coupled enzyme assay well known in the art. ADP, formed from kinase phosphorylation, is used by pyruvate kinase to generate pyruvate from phosphoenolpyruvate which in turn is converted to lactate by lactate dehydrogenase. The lactate results in the consumption of NADH which is followed spectrophotometrically. The rate of nucleoside phosphorylation is then directly related to the rate of decrease in the observed NADH signal.
TK1 was amplified using PCR with forward primer 5′-[…]-3′ and reverse primer 5′-[…]-3′. The PCR product was digested with Nde I and Hind III. An N-terminal His-tagged TK1 construct, TK1/pET28b(+), was generated by subcloning TK1 into the Nde I and Hind III sites of prokaryotic expression vector pET28b (+) (Novagen, San Diego, Calif.). TK1 was expressed from TK1/pET28b(+) using E. coli strain BL21-codon plus (Stratagene, San Diego, Calif.) and purified by Ni column chromatography.
A coupled (kinetic) ATP depletion assay was developed to measure thymidine kinase activity. The reaction contained 100 mM Tris HCl, pH 7.5, 20 mM MgCl2, 100 mM KCl, 0.4 mM PEP, 0.2 mM NADH, Pyruvate Kinase (0.7 units)/Lactate Dehydrogenase (1.0 unit) (Sigma #PO294), 2.5-10 μg Thymidine Kinase, 100 μM thymidine or thymidine-drug conjugate in a volume of 75 μl. ATP (5 mM in 25 μl H2O) was added to initiate the reaction and the velocity of ATP depletion was monitored at 340 nm continuously for 15 minutes.

tubulin = experiment: Fluorescence-based microtubule polymerization assay (MPA); assay type: biochemical; settings: mean percentage of paclitaxel or vinblastine activity; 0.75-10 micromolar
Description: Drug-linker constructs may further be screened using functional assays predictive of biological activity. […] Tubulin assembly or inhibition thereof may be monitored by fluorescence using the CytoDYNAMIX Screen™ 10 kit available from Cytoskeleton (1830 S. Acoma St., Denver, Colo.). […] Emission is monitored at 405 nm with excitation at 360 nm. […] Tubulin assembly or inhibition may also be monitored by light scattering which is approximated by the apparent absorption at 350 nm. For paclitaxel drug conjugates BSA is employed to prevent aggregation and glycerol, which is a tubulin polymerization enhancer, is omitted from the kit to increase the signal to noise ratio.
The assay kit (#BK011) was purchased from Cytoskeleton (Denver, Colo.). The assays were carried out according to the manufacturer's instructions, except that 1 mg/ml BSA (Sigma #A3059) was included in all assays. […] Parent drugs and conjugates were tested at 0.75, 1.5, 3 and 10 micromolar final concentration and results represent a comparison of conjugate and parent drug curves obtained from the linear range of the dose responses.

deoxycytidine kinase (dCK), sequence (P27707 whole entry, species assumed): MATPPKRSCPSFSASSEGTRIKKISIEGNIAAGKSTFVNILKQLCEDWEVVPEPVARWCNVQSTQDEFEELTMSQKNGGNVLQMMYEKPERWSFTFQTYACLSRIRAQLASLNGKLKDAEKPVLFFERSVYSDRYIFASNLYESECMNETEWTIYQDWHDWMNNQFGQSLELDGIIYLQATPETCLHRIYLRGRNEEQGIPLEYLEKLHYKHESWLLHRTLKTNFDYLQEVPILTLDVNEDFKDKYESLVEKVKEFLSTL

Row | Compound | TK1 (TK1) | TK2 (TK2) | dCK [1] | other results
1 | Cc1cn([C@H]2C[C@H](F)[C@@H](CO)O2)c(=O)[nH]c1=O [R4 = H, R3 = F (FLT), FLT] | 30 | <1 | <1 | 
2 | COc1cccc2c1C(=O)c1c(O)c3c(c(O)c1C2=O)C[C@@](O)(C(=O)CO)C[C@@H]3O[C@H]1C[C@H](NCCCN2C(=O)CC(SCCC(=O)NCCOCCOCCOCCn3c(=O)c(C)cn([C@H]4C[C@H](O)[C@@H](CO)O4)c3=O)C2=O)[C@H](O)[C@H](C)O1.O=C(O)C(F)(F)F (stereo partly shown) [DOX-3′Alk-[MALaPEG](22)-N3-THY] |  |  |  | Ave. TK1 Kinase Act. [2]: A (A<20)
3 | O=c1ccn([C@H]2CC[C@@H](CO)O2)c(=O)[nH]1 [R2 = H, R4 = H, R3 = H (ddU), ddU] | 10 | 2 | <1 | 
4 | O=c1ccn([C@H]2C[C@H](O)[C@@H](CO)O2)c(=O)[nH]1 [R2 = H, R4 = H, R3 = OH (dU), dU] | 100 | 100 | 6 | 
5 | O=c1[nH]c(=O)n([C@H]2C[C@H](O)[C@@H](CO)O2)cc1F [R2 = F, R4 = H, R3 = OH] | 90 | 90 |  | 
6 | Cc1cn([C@@H]2O[C@H](CO)[C@@H](O)[C@@H]2F)c(=O)[nH]c1=O [R2 = CH3, R5 = F (FMAU), FMAU] | 45 | 100 |  | 
7 | CC[C@]1(O)C[C@@H]2CN(CCc3c([nH]c4ccccc34)[C@@](C(=O)OC)(c3cc4c(cc3OC)N(C)[C@H]3[C@@](O)(C(=O)NCCCCCCn5c(=O)c(C)cn([C@H]6C[C@H](O)[C@@H](CO)O6)c5=O)[C@H](O)[C@]5(CC)C=CCN6CC[C@]43[C@@H]65)C2)C1 [VBL-3Am-ALK(6)-N3-THY] |  |  |  | Ave. MPA Act (tubulin): B (B=60-100); Ave. TK1 Kinase Act. [2]: A (A<20)
8 | Nc1cc[nH]c(=O)n1 [R4 = OH, R5 = H, R2 = H (Cytosine), Cytosine] | <1 | <1 | 20 | 
9 | Nc1ccn([C@H]2C[C@H](O)[C@@H](CO)O2)c(=O)n1 [R4 = H, R5 = H, R3 = OH (dC), dC] | <1 | 90 |  | TK2 (TK2; listed as R2 = H, X = C (dC)): 90; TK2 (TK2; listed as R4 = H, R5 = H, R2 = H (dC)): 90; TK2 (TK2; listed as β-D-dC): 93
10 | Cc1cn([C@H]2C[C@H](O)[C@@H](CO)O2)c(=O)[nH]c1=O [R4 = H, R3 = OH (Thy), Thy] | 100 | 100 | 2 | 
11 | Cc1cn([C@@H]2O[C@H](CO)[C@@H](O)[C@H]2O)c(=O)[nH]c1=O [R4 = OH, R3 = OH (RiboThymidine), RiboThymidine] | 2 | 3 |  | 
12 | CC[C@]1(O)C[C@@H]2CN(CCc3c([nH]c4ccccc34)[C@@](C(=O)OC)(c3cc4c(cc3OC)N(C)[C@H]3[C@@](O)(C(=O)NCCOCCOCCOCCn5c(=O)c(C)cn([C@H]6C[C@H](O)[C@@H](CO)O6)c5=O)[C@H](O)[C@]5(CC)C=CCN6CC[C@]43[C@@H]65)C2)C1 [VBL-3Am-PEG(11)-N3-THY] |  |  |  | Ave. MPA Act (tubulin): A (A<60); Ave. TK1 Kinase Act. [2]: B (B=20-40)
13 | Cc1cn([C@H]2C[C@H](CN=[N+]=[N-])[C@@H](CO)O2)c(=O)[nH]c1=O [R4 = H, R3 = CH2N3] | 15 | 3 |  | 
14 | CC[C@]1(O)C[C@@H]2CN(CCc3c([nH]c4ccccc34)[C@@](C(=O)OC)(c3cc4c(cc3OC)N(C)[C@H]3[C@@](O)(C(=O)NCCOCCn5c(=O)c(C)cn([C@H]6C[C@H](O)[C@@H](CO)O6)c5=O)[C@H](O)[C@]5(CC)C=CCN6CC[C@]43[C@@H]65)C2)C1 [VBL-3Am-PEG(5)-N3-THY] |  |  |  | Ave. MPA Act (tubulin): C (C>100); Ave. TK1 Kinase Act. [2]: A (A<20)
15 | CC(=O)O[C@@]12CO[C@@H]1C[C@H](O)[C@@]1(C)C(=O)[C@H](OC(=O)NCCOCCOCCOCCn3c(=O)c(C)cn([C@@H]4C[C@H](O)[C@@H](CO)O4)c3=O)C3=C(C)[C@@H](OC(=O)[C@H](O)[C@@H](NC(=O)c4ccccc4)c4ccccc4)C[C@@](O)([C@@H](OC(=O)c4ccccc4)[C@H]21)C3(C)C [PXL-10Ca-PEG(11)-N3-αTHY] |  |  |  | Ave. MPA Act (tubulin): B (B=60-100); Ave. TK1 Kinase Act. [2]: A (A<20)
16 | CC[C@]1(O)C[C@@H]2CN(CCc3c([nH]c4ccccc34)[C@@](C(=O)OC)(c3cc4c(cc3OC)N(C)[C@H]3[C@@](O)(C(=O)NCCCCn5c(=O)c(C)cn([C@H]6C[C@H](O)[C@@H](CO)O6)c5=O)[C@H](O)[C@]5(CC)C=CCN6CC[C@]43[C@@H]65)C2)C1 [VBL-3Am-ALK(4)-N3-THY] |  |  |  | Ave. MPA Act (tubulin): C (C>100); Ave. TK1 Kinase Act. [2]: B (B=20-40)
17 | O=c1[nH]c(=O)n([C@@H]2O[C@H](CO)[C@@H](O)[C@@H]2F)cc1I [R2 = I, R5 = F (FIAU), FIAU] | 42 | 90 |  | 
18 | CC(=O)O[C@H]1C(=O)[C@]2(C)[C@@H](OC(=O)NCCCCCCn3c(=O)c(C)cn([C@@H]4C[C@H](O)[C@@H](CO)O4)c3=O)C[C@H]3OC[C@@]3(OC(C)=O)[C@H]2[C@H](OC(=O)c2ccccc2)[C@]2(O)C[C@H](OC(=O)[C@H](O)[C@@H](NC(=O)c3ccccc3)c3ccccc3)C(C)=C1C2(C)C [PXL-7Ca-ALK(6)-N3-αTHY] |  |  |  | Ave. MPA Act (tubulin): B (B=60-100)
19 | Cc1cn([C@H]2C[C@H](N=[N+]=[N-])[C@@H](CO)O2)c(=O)[nH]c1=O [R4 = H, R3 = N3 (AZT), AZT] | 50 and 40 | 5 | <1 | 
20 | C#C[C@H]1C[C@H](n2cc(C)c(=O)[nH]c2=O)O[C@@H]1CO [R4 = H, R3 = CCH] | <1 | <1 |  | 
21 | CC(=O)O[C@H]1C(=O)[C@]2(C)[C@@H](OC(=O)CCCCCN)C[C@H]3OC[C@@]3(OC(C)=O)[C@H]2[C@H](OC(=O)c2ccccc2)[C@]2(O)C[C@H](OC(=O)[C@H](O)[C@@H](NC(=O)c3ccccc3)c3ccccc3)C(C)=C1C2(C)C [PXL-7Es-ALK(5)-NH2] |  |  |  | Ave. MPA Act (tubulin): A (A<60)
22 | Nc1ccn([C@@H]2O[C@H](CO)[C@@H](O)[C@@H]2O)c(=O)n1 [R4 = H, R5 = OH, R3 = OH (Cytosar, AraC), AraC] | <1 | <1 |  | 
23 | Cc1cn([C@H]2CC[C@@H](CO)O2)c(=O)[nH]c1=O [R4 = H, R3 = H] | 40 | 4 | <1 | 
24 | CCc1cn([C@H]2C[C@H](O)[C@@H](CO)O2)c(=O)[nH]c1=O [R2 = Et, R4 = H, R3 = OH] | 80 | 10 |  | 
25 | O=c1[nH]c(=O)n([C@H]2C[C@H](O)[C@@H](CO)O2)cc1Br [R2 = Br, R4 = H, R3 = OH] | 80 | 10 | <1 | 
